The subject of the assay is L1210 leukemia ip in BDF1 mice, survival T/C. The assay can be described thus: NCI In Vivo Anticancer Drug Screen. Data for tumor model L1210 Leukemia (intraperitoneal) in B6D2F1 (BDF1) mice. Conditions: endpoint: mean survival time, higher = longer survival. In a few lines: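 Ratio derived from survival: compound-dosed mice over vehicle-dosed mice, all bearing a transplantable tumor.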

[1] abbreviates: dose: 100.0 mg/kg/injection, schedule: Q01DX009 (ip), vehicle: Klucel (hydroxypropylcellulose) (HPC).
Where [2] appears, read: dose: 100.0 mg/kg/injection, schedule: Q04DX003 (ip), vehicle: Klucel (hydroxypropylcellulose) (HPC).
[3] abbreviates: dose: 200.0 mg/kg/injection, schedule: Q01DX009 (ip), vehicle: Klucel (hydroxypropylcellulose) (HPC).
The mark [4] stands for this setting: dose: 200.0 mg/kg/injection, schedule: Q04DX003 (ip), vehicle: Klucel (hydroxypropylcellulose) (HPC).
Setting [5] is: dose: 400.0 mg/kg/injection, schedule: Q01DX009 (ip), vehicle: Klucel (hydroxypropylcellulose) (HPC).
The mark [6] stands for this setting: dose: 400.0 mg/kg/injection, schedule: Q04DX003 (ip), vehicle: Klucel (hydroxypropylcellulose) (HPC).
The mark [7] stands for this setting: dose: 100.0 mg/kg/injection, schedule: Q01DX001 (ip), vehicle: saline with Tween-80.
Where [8] appears, read: dose: 100.0 mg/kg/injection, schedule: Q04DX002 (ip), vehicle: saline with Tween-80.
The mark [9] stands for this setting: dose: 100.0 mg/kg/injection, schedule: Q04DX003 (ip), vehicle: saline with Tween-80.
Where [10] appears, read: dose: 200.0 mg/kg/injection, schedule: Q01DX001 (ip), vehicle: saline with Tween-80.
Where [11] appears, read: dose: 200.0 mg/kg/injection, schedule: Q04DX002 (ip), vehicle: saline with Tween-80.
[12] abbreviates: dose: 200.0 mg/kg/injection, schedule: Q04DX003 (ip), vehicle: saline with Tween-80.
[13] abbreviates: dose: 400.0 mg/kg/injection, schedule: Q01DX001 (ip), vehicle: saline with Tween-80.
The mark [14] stands for this setting: dose: 400.0 mg/kg/injection, schedule: Q04DX002 (ip), vehicle: saline with Tween-80.
Setting [15] is: dose: 50.0 mg/kg/injection, schedule: Q01DX001 (ip), vehicle: carboxymethylcellulose (CMC).
[16] abbreviates: dose: 100.0 mg/kg/injection, schedule: Q01DX001 (ip), vehicle: carboxymethylcellulose (CMC).
[17] abbreviates: dose: 200.0 mg/kg/injection, schedule: Q01DX001 (ip), vehicle: carboxymethylcellulose (CMC).
Where [18] appears, read: dose: 400.0 mg/kg/injection, schedule: Q01DX001 (ip), vehicle: carboxymethylcellulose (CMC).
Setting [19] is: dose: 100.0 mg/kg/injection, schedule: Q01DX001 (ip), vehicle: saline.
Setting [20] is: dose: 100.0 mg/kg/injection, schedule: Q01DX009 (ip), vehicle: saline.
[21] abbreviates: dose: 100.0 mg/kg/injection, schedule: Q04DX003 (ip), vehicle: saline.
Setting [22] is: dose: 200.0 mg/kg/injection, schedule: Q01DX001 (ip), vehicle: saline.
The mark [23] stands for this setting: dose: 200.0 mg/kg/injection, schedule: Q01DX009 (ip), vehicle: saline.
Setting [24] is: dose: 200.0 mg/kg/injection, schedule: Q04DX003 (ip), vehicle: saline.
Where [25] appears, read: dose: 400.0 mg/kg/injection, schedule: Q01DX001 (ip), vehicle: saline.
Setting [26] is: dose: 400.0 mg/kg/injection, schedule: Q01DX009 (ip), vehicle: saline.

Molecules are shown by their SMILES. “And” between values parts separate entries of the source, which are not always exact repeats. Identical values can stand only once. Inconclusive results and toxic doses are left out.

Regarding `CC(C)(C)C1=NN=C(C(C)(C)C)CSC1`, the T/C is 95 % of control and 100 % of control under setting [1]; 98 % of control and 103 % of control (dose: 100.0 mg/kg/injection, schedule: Q04DX002 (ip), vehicle: Klucel (hydroxypropylcellulose) (HPC)); 101 % of control under setting [2]; 101 % of control and 113 % of control under setting [3]; 103 % of control and 105 % of control (dose: 200.0 mg/kg/injection, schedule: Q04DX002 (ip), vehicle: Klucel (hydroxypropylcellulose) (HPC)); 97 % of control under setting [4]. In addition, the T/C by setting is: under setting [5], 101 % of control and 92 % of control; (dose: 400.0 mg/kg/injection, schedule: Q04DX002 (ip), vehicle: Klucel (hydroxypropylcellulose) (HPC)) 98 % of control and 105 % of control; under setting [6], 95 % of control.
With `O=C(NC(=S)Nc1ccc(O)cc1)c1cccc([N+](=O)[O-])c1`, the T/C is 87 % of control under setting [7]; 99 % of control and 103 % of control (dose: 100.0 mg/kg/injection, schedule: Q01DX009 (ip), vehicle: saline with Tween-80); 101 % of control under setting [8]; 94 % of control under setting [9]; 91 % of control under setting [10]; 92 % of control and 100 % of control (dose: 200.0 mg/kg/injection, schedule: Q01DX009 (ip), vehicle: saline with Tween-80). Besides, the T/C runs as follows: under setting [11], 97 % of control; under setting [12], 96 % of control; under setting [13], 101 % of control; (dose: 400.0 mg/kg/injection, schedule: Q01DX009 (ip), vehicle: saline with Tween-80) 92 % of control and 100 % of control; under setting [14], 90 % of control; (dose: 400.0 mg/kg/injection, schedule: Q04DX003 (ip), vehicle: saline with Tween-80) 95 % of control.
Consider `COc1ccc(/C=N/NC(=O)c2ccc(O)cc2)cc1`, for which the T/C by setting is: under setting [1], 100 % of control; under setting [3], 98 % of control; under setting [5], 94 % of control.
For the molecule `O=C(Oc1ccccc1)c1ccc2[nH]c(=O)c(C(=O)O)nc2c1`, the T/C is 96 % of control (dose: 25.0 mg/kg/injection, schedule: Q01DX001 (ip), vehicle: saline with Tween-80); 100 % of control (dose: 50.0 mg/kg/injection, schedule: Q01DX001 (ip), vehicle: saline with Tween-80); 98 % of control under setting [7].
For `NC(=O)CNC(=O)OCc1ccccc1`, the T/C under setting [1] was 102 % of control; the T/C under setting [2] is 94 % of control; the T/C under setting [3] was 94 % of control; the T/C under setting [4] was 105 % of control; the T/C under setting [5] is 107 % of control; the T/C under setting [6] was 94 % of control.
Regarding `Cc1cc([N+](=O)[O-])c(NCCOC(=O)c2ccc([N+](=O)[O-])cc2)c([N+](=O)[O-])c1`, the T/C was 106 % of control under setting [1], 112 % of control under setting [3] and 98 % of control under setting [5].
`c1ccc(C2c3ccccc3C(c3ccccc3)(c3ccccc3)c3ccccc32)cc1`: the T/C was 91 % of control (dose: 100.0 mg/kg/injection, schedule: Q01DX001 (ip), vehicle: other); 91 % of control (dose: 200.0 mg/kg/injection, schedule: Q01DX001 (ip), vehicle: other); 91 % of control (dose: 400.0 mg/kg/injection, schedule: Q01DX001 (ip), vehicle: other).
Turning to `O=C(O)COc1ccccc1OCC(=O)O`, the T/C by setting is: under setting [1], 98 % of control; under setting [2], 94 % of control; under setting [3], 100 % of control; under setting [4], 100 % of control; under setting [6], 98 % of control.
For the molecule `O=C1c2ccccc2C(=O)C2OC12` (configuration not stated), the T/C was 97 % of control (dose: 3.0 mg/kg/injection, schedule: Q01DX009 (ip), vehicle: Klucel (hydroxypropylcellulose) (HPC)); 93 % of control (dose: 6.0 mg/kg/injection, schedule: Q01DX009 (ip), vehicle: Klucel (hydroxypropylcellulose) (HPC)); 97 % of control (dose: 12.0 mg/kg/injection, schedule: Q01DX009 (ip), vehicle: Klucel (hydroxypropylcellulose) (HPC)); 102 % of control (dose: 12.5 mg/kg/injection, schedule: Q04DX002 (ip), vehicle: Klucel (hydroxypropylcellulose) (HPC)); 94 % of control (dose: 25.0 mg/kg/injection, schedule: Q04DX002 (ip), vehicle: Klucel (hydroxypropylcellulose) (HPC)); 98 % of control under setting [15]. Besides, the T/C (dose: 50.0 mg/kg/injection, schedule: Q04DX002 (ip), vehicle: Klucel (hydroxypropylcellulose) (HPC)) is 97 % of control; the T/C under setting [16] was 109 % of control; the T/C under setting [17] is 98 % of control; the T/C under setting [18] is 104 % of control.
With `CC1C(C(=O)c2ccc(-c3ccccc3)cc2)N1C1CCCCC1` (configuration not stated), the T/C under setting [9] was 93 % of control and the T/C under setting [12] was 86 % of control.
`Cc1ccc(S(=O)(=O)N/N=C(/c2ccccc2)c2ccsc2C)cc1`: the T/C under setting [7] is 98 % of control, the T/C under setting [10] was 88 % of control and the T/C under setting [13] was 92 % of control.
As to `Cc1ccc(/C(C#N)=C/C2CCC(N(C)C)CC2)cc1` (configuration not stated), the T/C is, setting by setting: under setting [8], 87 % of control; under setting [11], 93 % of control; under setting [14], 87 % of control.
For `Cc1cc2oc(=O)c3c(c2c(O)c1CN1CCOCC1)CCCC3`, the T/C is 96 % of control under setting [16] and 98 % of control under setting [18].
With `CCOc1nc(N)nc(-c2ccc(OC)cc2)c1Br`, the T/C reads like this: under setting [8], 94 % of control; under setting [11], 102 % of control; under setting [14], 97 % of control.
For `Nc1nc(SCc2ccccc2)c2ncn(C3OC(CO)CC3O)c2n1` (configuration not stated), the T/C is, setting by setting: (dose: 25.0 mg/kg/injection, schedule: Q01DX009 (ip), vehicle: other) 113 % of control; under setting [15], 110 % of control; (dose: 50.0 mg/kg/injection, schedule: Q01DX009 (ip), vehicle: other) 158 % of control; under setting [16], 116 % of control; (dose: 100.0 mg/kg/injection, schedule: Q01DX009 (ip), vehicle: other) 158 % of control; under setting [18], 150 % of control. For the same molecule, the T/C (dose: 400.0 mg/kg/injection, schedule: Q01DX009 (ip), vehicle: other) is 95 % of control and the T/C (dose: 600.0 mg/kg/injection, schedule: Q01DX001 (ip), vehicle: carboxymethylcellulose (CMC)) is 155 % of control.
Regarding `CCCCCCCCCCCCCCOc1ccc(Cc2ccccc2)cc1`, the T/C reads like this: under setting [2], 91 % of control; under setting [4], 90 % of control; under setting [6], 88 % of control.
Consider `CCOC(=O)C(CCC#N)(CCC#N)C(C)=O`, for which the T/C runs as follows: under setting [2], 105 % of control; under setting [4], 94 % of control.
Take `CCOC(=O)C(NC(C)=O)C(N)=S` (configuration not stated): the T/C by setting is: under setting [19], 99 % of control; under setting [20], 108 % of control; under setting [21], 102 % of control; under setting [22], 93 % of control; under setting [23], 97 % of control; under setting [24], 96 % of control. Moreover, the T/C is 94 % of control under setting [25]; 105 % of control under setting [26]; 106 % of control (dose: 400.0 mg/kg/injection, schedule: Q04DX003 (ip), vehicle: saline).
On to `Nc1ncnc2c1ncn2C1OC(CO)C(O)C1N` (configuration not stated), for which the T/C reads like this: under setting [15], 100 % of control; (dose: 50.0 mg/kg/injection, schedule: Q01DX001 (ip), vehicle: saline) 103 % of control and 108 % of control; under setting [16], 110 % of control; under setting [19], 98 % of control and 103 % of control; under setting [17], 100 % of control; under setting [22], 90 % of control and 108 % of control. Moreover, the T/C runs as follows: under setting [18], 98 % of control; under setting [25], 100 % of control and 116 % of control.
Turning to `CCOCC[n+]1ccc(C)cc1`, the T/C was 107 % of control under setting [21] and 95 % of control under setting [24].
For the molecule `O=CN1CCCc2cc(C(=O)O)ccc21`, the T/C under setting [20] was 90 % of control, the T/C under setting [23] was 93 % of control and the T/C under setting [26] was 86 % of control.
